Columns and labels:
[1] = Pharmacokinetic characterisation in Beagle dogs, single s.c. injection, dose range (Example 6); format: in vivo; conditions: male, plasma, dog, SC
Text: The dosing vehicle was PBS buffer, pH 7.

[2] = target: T1, α4β1 RAMOS/VCAM-1 adhesion (Homo sapiens, UniProt P05556+P13612); test: Integrin α4β1-VCAM-1 cell adhesion assay, RAMOS cells (Example 7); format: cell-based; conditions: rhVCAM-1 coated plate, DMEM binding buffer
T1 construct: host or cells: RAMOS
Protocol: The human B lymphocyte cell line RAMOS was obtained from the Zealand Pharma culture collection.
Compound 1 and Comparative compounds 1 and 2 were reconstituted in DMSO to a concentration of 10 mM.
CFSE-labelled RPMI 8866 cells were added to the plate coated with rhMAdCAM-1 and CFSE-labelled RAMOS cells were added to the plate coated with rhVCAM-1.
After incubation, unbound cells were washed away. The cell plates were emptied by inverting and residues of liquid were removed by blotting on paper towel.

[3] = target: T2, α4β7 RPMI8866/MAdCAM-1 adhesion (Homo sapiens, UniProt P13612+P26010); test: Integrin α4β7-MAdCAM cell adhesion assay, RPMI8866 cells (Example 7); format: cell-based
T2 construct: CFSE-labelled RPMI 8866 cells were added to the plate coated with rhMAdCAM-1; host or cells: RPMI 8866
T2 sequence (P13612 34-1032): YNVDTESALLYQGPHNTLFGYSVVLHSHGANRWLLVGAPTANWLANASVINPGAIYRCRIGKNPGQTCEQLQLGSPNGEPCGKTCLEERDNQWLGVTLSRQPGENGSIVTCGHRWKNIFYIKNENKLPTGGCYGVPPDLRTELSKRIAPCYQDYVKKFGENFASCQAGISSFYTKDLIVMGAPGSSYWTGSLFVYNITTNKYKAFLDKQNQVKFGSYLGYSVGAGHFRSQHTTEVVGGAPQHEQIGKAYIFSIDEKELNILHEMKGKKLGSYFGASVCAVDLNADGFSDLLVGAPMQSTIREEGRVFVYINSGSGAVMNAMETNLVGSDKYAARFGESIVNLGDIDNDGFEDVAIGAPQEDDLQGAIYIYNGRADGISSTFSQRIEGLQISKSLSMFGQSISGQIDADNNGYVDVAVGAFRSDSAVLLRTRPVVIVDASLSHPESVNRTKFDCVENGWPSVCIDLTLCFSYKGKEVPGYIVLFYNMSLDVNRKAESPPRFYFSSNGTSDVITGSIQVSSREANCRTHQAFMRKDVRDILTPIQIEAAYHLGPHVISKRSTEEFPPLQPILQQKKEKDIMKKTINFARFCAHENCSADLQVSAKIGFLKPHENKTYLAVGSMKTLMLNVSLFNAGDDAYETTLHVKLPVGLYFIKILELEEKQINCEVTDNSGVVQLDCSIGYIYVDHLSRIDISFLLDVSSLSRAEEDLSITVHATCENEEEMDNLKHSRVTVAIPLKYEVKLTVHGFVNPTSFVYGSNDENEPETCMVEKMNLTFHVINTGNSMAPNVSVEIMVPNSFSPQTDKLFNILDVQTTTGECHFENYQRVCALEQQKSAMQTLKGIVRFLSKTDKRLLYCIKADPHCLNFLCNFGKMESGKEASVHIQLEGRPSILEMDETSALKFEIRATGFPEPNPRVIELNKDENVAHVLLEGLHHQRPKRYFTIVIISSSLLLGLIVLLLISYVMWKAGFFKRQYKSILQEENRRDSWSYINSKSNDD
T2 sequence (P26010 20-798): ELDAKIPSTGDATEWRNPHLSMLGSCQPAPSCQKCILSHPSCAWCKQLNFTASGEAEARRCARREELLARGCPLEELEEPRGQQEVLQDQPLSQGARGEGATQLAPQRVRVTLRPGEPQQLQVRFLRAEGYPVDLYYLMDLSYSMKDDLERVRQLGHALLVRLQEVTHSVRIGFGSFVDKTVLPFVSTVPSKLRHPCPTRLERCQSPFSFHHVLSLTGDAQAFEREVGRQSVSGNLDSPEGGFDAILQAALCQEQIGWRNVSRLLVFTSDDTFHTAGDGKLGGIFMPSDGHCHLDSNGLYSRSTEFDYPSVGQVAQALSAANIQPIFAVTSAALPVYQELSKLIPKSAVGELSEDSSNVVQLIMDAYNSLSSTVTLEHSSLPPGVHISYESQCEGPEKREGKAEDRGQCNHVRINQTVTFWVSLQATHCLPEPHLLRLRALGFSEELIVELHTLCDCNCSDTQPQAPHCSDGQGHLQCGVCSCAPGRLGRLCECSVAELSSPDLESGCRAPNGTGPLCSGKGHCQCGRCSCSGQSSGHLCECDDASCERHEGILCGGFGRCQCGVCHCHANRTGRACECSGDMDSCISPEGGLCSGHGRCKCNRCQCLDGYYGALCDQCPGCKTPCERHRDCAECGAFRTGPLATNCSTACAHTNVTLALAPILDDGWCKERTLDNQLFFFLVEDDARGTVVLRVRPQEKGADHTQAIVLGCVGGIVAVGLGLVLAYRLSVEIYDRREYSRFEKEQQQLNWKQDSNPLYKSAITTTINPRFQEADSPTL
Text: The cells were pelleted by centrifugation and resuspended in fresh pre-warmed complete culture medium and the cells were counted. […]

T1 sequence (P05556 21-798, one chain of several): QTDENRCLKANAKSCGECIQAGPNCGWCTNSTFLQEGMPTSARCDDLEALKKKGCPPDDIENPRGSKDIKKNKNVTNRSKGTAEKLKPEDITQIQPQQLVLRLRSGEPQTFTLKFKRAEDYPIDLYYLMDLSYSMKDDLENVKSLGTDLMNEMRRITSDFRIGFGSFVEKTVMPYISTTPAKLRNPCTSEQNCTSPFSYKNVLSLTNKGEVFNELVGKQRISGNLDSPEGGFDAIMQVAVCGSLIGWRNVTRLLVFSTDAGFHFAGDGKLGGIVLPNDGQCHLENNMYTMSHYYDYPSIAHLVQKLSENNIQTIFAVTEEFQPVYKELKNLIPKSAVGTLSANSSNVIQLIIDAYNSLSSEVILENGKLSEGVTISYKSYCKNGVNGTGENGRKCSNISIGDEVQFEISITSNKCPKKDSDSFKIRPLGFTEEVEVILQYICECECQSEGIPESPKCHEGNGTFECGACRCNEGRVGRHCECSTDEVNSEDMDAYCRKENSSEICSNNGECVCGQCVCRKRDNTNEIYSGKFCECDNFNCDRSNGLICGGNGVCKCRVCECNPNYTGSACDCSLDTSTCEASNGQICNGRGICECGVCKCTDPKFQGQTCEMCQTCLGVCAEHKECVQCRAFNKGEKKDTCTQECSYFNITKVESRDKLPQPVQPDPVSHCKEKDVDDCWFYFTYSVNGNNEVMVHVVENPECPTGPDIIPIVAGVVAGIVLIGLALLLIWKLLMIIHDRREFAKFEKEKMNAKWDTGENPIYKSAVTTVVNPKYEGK

Compound: CC[C@H](C)[C@@H]1NC(=O)[C@H](CC(=O)O)NC(=O)[C@H](CC(C)C)NC(=O)c2ccc(-c3ccc(N4CCN(C(=O)c5ccccc5-c5ccccc5C(=O)N5CCN(c6ccc(-c7ccc8cc7CNC(=O)[C@@H]7CCCN7[C@H](C(=O)NC(C)(C)C)[C@H](C)NC(=O)[C@H]([C@@H](C)CC)NC(=O)[C@H](CC(=O)O)NC(=O)[C@H](CC(C)C)NC8=O)cc6)CC5)CC4)cc3)c(c2)CNC(=O)[C@@H]2CCCN2[C@H](C(=O)NC(C)(C)C)[C@H](C)NC1=O [Compound 1]
- AUC ([1]; 10 ug/kg): 2.46 µM·h
- AUC ([1]; 20 ug/kg): 5.68 µM·h
- AUC ([1]; 50 ug/kg): 11.6 µM·h
- AUC ([1]; 100 ug/kg): 58.6 µM·h
- AUC ([1]; 200 ug/kg): 72.5 µM·h
- AUC ([1]; 400 ug/kg): 158 µM·h
- IC50 [2]: 115 nM
- IC50 ([3]; RPMI 8866 cells, rhMAdCAM-1 coated plate, DMEM binding buffer): 7.2 nM
- Selectivity ratio ([3]; α4β1 RAMOS/VCAM-1 IC50 versus α4β7 RPMI8866/MAdCAM-1 IC50): 16.0
